In US11173135B2 (Thiogenesis Therapeutics, Inc., priority 2016, dated 2021):
Blank lines part the entries; values can stand above or below the compound they belong to.

Experiments:
[1] = test system: cystinosis patients; details: high doses, syrup between meals; cited from earlier work
[2] = cystinuria patients; cited from earlier work
[3] = in vivo; cited from earlier work
[4] = cited from earlier work
[5] = test system: ALT and AST in plasma; test: Example 9 NASH patient case: plasma liver enzymes; type: in vivo, human; details: within six weeks of initiating therapy; with vitamin C and vitamin E
Protocol: The daily dose of vitamin C is 2 grams and the daily dose of vitamin E is 800 international units of alpha tocopherol, RRR stereoisomer, which amounts to 533.3 milligrams per day (1 IU of tocopherol is defined as % milligrams of RRR-alpha-tocopherol). Half those amounts are administered twice per day.
Drug is administered in two divided doses (1,392 mg each) at 10 to 12 hour intervals, with breakfast and dinner.
In the second category (dynamic markers of drug response) levels of ALT and AST in plasma are followed over time as an index of ongoing hepatocyte damage. […] If ALT and AST levels had not dropped by 50% the regimen would have been discontinued.

[6] = test system: children with NAFLD; details: pediatric NAFLD patients treated for 24 weeks; cited from earlier work
[7] = administered to fasting patients; cited from earlier work
[8] = test system: CYP1A2, CYP2A6, CYP2B6, CYP2C8, CYP2C9, CYP2C19, CYP2D6, CYP2E1 and CYP3A4; details: in vitro; cited from earlier work
[9] = test system: Plasmodium Falciparum; details: in vitro and in mouse models of malaria; cited from earlier work
[10] = test system: erythrocytes from sickle cell disease patients; details: hypoxic conditions; cited from earlier work
[11] = test system: CYP1A2, CYP2B6, CYP2C8, CYP2C9, CYP2C19, CYP2D6, CYP2E1, CYP2A6, CYP3A4; details: in vitro; cited from earlier work
[12] = test system: Pseudomonas aeruginosa; details: cited from earlier work
[13] = test system: cancer cell lines and xenograft models; details: cited from earlier work
[14] = Lynovex from Novabiotics; cited from earlier work
[15] = test system: kidney fibrosis; details: two mouse models; cited from earlier work
[16] = test system: R6/2 HD mouse model; details: R6/2 mouse; cited from earlier work
[17] = Pharmacokinetic study of TTI-0602: cysteamine in blood plasma after gavage; type: in vivo, Sprague-Dawley rats
Protocol: Thus in the discussion below, and in the accompanying figures, a “30 mg/kg” dose of TTI-0602 means 77.92 mg/kg was administered, a “60 mg/kg” dose of TTI-0602 means 155.84 mg/kg was administered and a “120 mg/kg” dose of TTI-0602 means 311.68 mg/kg was administered. The purpose of this nomenclature, which is widely used in the literature concerning cysteamine salts, is to facilitate comparison of doses of different cysteamine precursors and cysteamine salts.
The TTI-0602 doses were prepared for 250 gram rats, but the actual masses of the rats at the time of drug administration varied from 267-300 grams, so the actual doses, normalized to body weight, ranged from 26.1-27.1 mg/kg in group 1, 51.7-56.2 mg/kg in group 2 and 108.3-109.5 mg/kg in group 3. Nonetheless, for convenience those doses are referred to as 30, 60 and 120 mg/kg.
Blood samples were obtained from rats immediately before dosing and 5, 10, 20, 30, 45, 60, 90, 120, 180, 240, 300 and 600 minutes after dosing via carotid artery catheters surgically implanted before the PK study. Plasma was obtained from blood by centrifugation and snap frozen. Several days later plasma samples were thawed on ice and each plasma sample was aliquoted to two paired tubes (20 μL per tube), one of which was processed for measurement of thiols (after quantitative disulfide bond reduction), while the other was processed for analysis of disulfides.
To quantitatively reduce disulfide bonds the plasma in the first tube was treated with 5 mM tris(2-carboxyethyl)phosphine (TCEP), a selective and potent disulfide bond reducing agent, using a protocol reported by Dohil et al. (2012). Briefly, 2.2 ul of freshly prepared 50 mM TCEP stock solution was added to 20 ul of plasma and the sample incubated at 37 degrees C. for 45 minutes. […]
The denatured protein was pelleted by centrifugation at 14,000 rpm for 10 minutes at 4 degrees C. in an Eppendorf microcentrifuge. […] Metabolites were analyzed using a Nexera X2 U-HPLC (Shimadzu) and a Q-Exactive hybrid quadrupole Orbitrap mass spectrometer (Thermo Fisher Scientific). […]

[18] = test system: white blood cell (WBC) cystine; test: Example 8 cystinosis patient cases: white blood cell cystine; type: in vivo, human
Description: (§1) Dose formulations and treatment regimens for three patients with cystinosis are described, to illustrate both demographic variability in the patient population and how inter-individual biochemical variation in drug absorption, metabolism and response can be overcome by exploiting the drug and dosage form flexibility provided by the invention. These examples illustrate the principles of cysteamine precursor selection, dosage form selection and dose regimen individualization.
Disease control is monitored via periodic measurement of white blood cell cystine levels. The therapeutic target, as for all cystinosis patients, is to suppress white blood cell (WBC) cystine to less than 1 nanomole of ½ cystine per mg of WBC protein. […] If this higher dose is still not effective in controlling WBC cystine levels the dose can be further increased in increments of 150 mg/day.

[19] = Example 8 cystinosis patient cases: plasma cysteamine levels; type: in vivo, human
Description: as §1

[20] = Tissue levels of cysteamine in liver and kidney at end of PK study; type: in vivo, Sprague-Dawley rats; details: 10.5 hours after TTI-0602 120 mg/kg, all three rats
Protocol: (§2) In addition to the plasma samples, gastrointestinal contents (stomach contents, proximal small intestinal contents, distal small intestinal contents and cecum/colon contents), liver, kidney and spleen were obtained from rats at the end of the study (10.5 hours after dosing) and snap frozen. Tissue levels of cysteamine, N-acetyl cysteamine and pantothenic acid were measured in the gastrointestinal contents and in liver and kidney tissue. […]

[21] = Analysis of gastrointestinal contents at end of PK study; type: in vivo, Sprague-Dawley rats; details: 120 mg/kg rats, ten hours after dosing
Protocol: as §2

[22] = Dissolution of TTI-0602 dose in saline; type: physicochemical; details: 120 mg/kg dose in 3 milliliters of saline
[23] = cysteamine hydrochloride at 30 mg/kg cysteamine base, gavage

SMILES: CC(C)(CO)[C@@H](O)C(=O)NCCC(=O)NCCSSCCNC(=O)CCNC(=O)[C@H](O)C(C)(C)CO [pantethine]
gastrointestinal side effect [1]: caused diarrhea

SMILES: CC(S)C(=O)NCC(=O)O (stereo not drawn) [Alpha-mercaptopropionylglycine]
tolerability [2]: not tolerated by about one third of patients

SMILES: CC(C)(COP(=O)(O)O)[C@@H](O)C(=O)NCCC(=O)NCCS [4-phosphopantetheine]
half life in blood [3]: over 3 hours

SMILES: NCCS [cysteamine bitartrate]
Cmax ([4]; read-out: Cmax of cysteamine, cysteamine bitartrate 20 mg/kg cysteamine base equivalent): 81.9 µM

SMILES: CC(=O)NC(CSSCCN)C(=O)O (centres unmarked) [cysteamine-N-acetylcysteine, cysteamine-N-acetylcysteine disulfide]
fall in plasma ALT [5]: at least 50% | fall in plasma AST [5]: at least 50%

SMILES: NCCS [cysteamine, 2-aminoethanethiol]
high molecular weight adiponectin multimers [6]: increased levels of high molecular weigh adiponectin multimers | inter-patient variation in cysteamine plasma levels [7]: up to four fold | inhibition of CYP enzymes [8]: not an inhibitor of CYP1A2, CYP2A6, CYP2B6, CYP2C8, CYP2C9, CYP2C19, CYP2D6, CYP2E1 and CYP3A4 | proliferation of the parasite [9]: inhibits proliferation | sickling [10]: marked inhibition of sickling | metabolism by CYP enzymes [11]: likely to be metabolized by multiple CYP enzymes, including CYP1A2, CYP2B6, CYP2C8, CYP2C9, CYP2C19, CYP2D6, and CYP2E1, but not by CYP2A6 or CYP3A4 | effect on biofilms ([12]; P. aeruginosa biofilms): prevented the formation of, and disrupted established P. aeruginosa biofilms | bactericidal activity ([12]; Pseudomonas aeruginosa and other CF pathogens, Lynovex from Novabiotics): bactericidal | matrix metalloproteinase activity ([13]; animal xenografts and cancer cell lines): significantly decreased | survival of mice ([13]; xenograft models): prolonged survival of mice in a dose-dependent manner without toxicity | mucolytic activity vs. currently available mucolytic agents [14]: at least comparable mucolytic activity | efficacy in kidney fibrosis models [15]: effective | beneficial effects in HD mouse model [16]: amelioration of weight loss and motor abnormalities, and prolongation of survival

SMILES: CC(C)(S)[C@@H](N)C(=O)O [penicillamine]
tolerability [2]: not well tolerated by most patients

SMILES: Cl.NCCS [cysteamine HCl, cysteamine hydrochloride]
shape of the plasma cysteamine concentration-time curve ([17]; cysteamine hydrochloride 30 mg/kg vs TTI-0602 120 mg/kg): a high, sharp peak | peak plasma cysteamine concentration [17, 23]: over 200 uM | time by which cysteamine concentration declined to less than half maximal [17, 23]: ≤ 90 min

plasma cysteamine level six hours after the morning dose ([19]; Patient 2, 1,800 mg/day as IR/DR/SR powders): 22 µM | plasma cysteamine level 12 hours after the morning dose ([19]; Patient 2, immediately before the evening dose): 4 µM
SMILES: CC(C)(CO)[C@@H](O)C(=O)NCCC(=O)NCCSSCCN [cysteamine-pantetheine disulfide, cysteamine-(R)-pantetheine disulfide]
WBC cystine level ([18]; Patient 2, after sustained release component increased from 540 to 800 mg/day): 0.9 nanomoles of ½ cystine per mg protein | WBC cystine level ([18]; Patient 2, after two months, 1,800 mg/day cysteamine free base as IR/DR/SR powders): 1.34 nanomoles of ½ cystine per mg of protein

SMILES: NCCS.O=C(O)C(O)C(O)C(=O)O (centres unmarked) [cysteamine bitartrate]
time by which cysteamine levels returned to baseline ([4]; cysteamine bitartrate 20 mg/kg cysteamine base equivalent): ≤ 2 h | cysteamine eliminated by 150 minutes (inferred) ([4]; cysteamine bitartrate 20 mg/kg, tissue): over 95% | tissue half life of cysteamine ([4]; cysteamine bitartrate 20 mg/kg): 25 to 29 min

SMILES: CC(S)C(=O)NCC(=O)O (centres unmarked) [tiopronin]
tolerability [2]: not well tolerated by most patients

tissue level of cysteamine in kidney [20]: over 50 uM | tissue level of cysteamine in liver [20]: over 50 uM | dissolution of dose in saline [22]: did not completely dissolve in saline
SMILES: CC(=O)NCCSSCCNC(=O)CCNC(=O)[C@H](O)C(C)(C)CO [TTI-0602, N-acetylcysteamine-(R)-pantetheine disulfide]
undissolved drug in gastrointestinal contents [21]: a substantial amount of undissolved drug remained stuck in the stomachs of rats 8 and 9
